Experiments:
[1] = for surface tension liquid-gas: Wilhelmy-plate method; for mass density / viscosity: 101.33 kPa, Liquid; for viscosity: Capillary tube (Ostwald / Ubbelohde) method
[2] = refractive index (Na D-line) (dimensionless); details: 101.33 kPa, Liquid, Standard Abbe refractometry

CCOC(=O)Cc1ccccc1 [ethyl phenylacetate]
Details | mass density, [1] [kg/m3] | refractive index, [2] | surface tension liquid-gas, [1] [mN/m] | viscosity, [1] [mPa·s]
288.15 K | 1036.35 | 1.49971 | 35.9 | 3.002
298.15 K | 1026.96 | 1.49513 | 34.6 | 2.384
308.15 K | 1017.6 | 1.49063 | 33.5 | 1.948
318.15 K | 1008.26 | 1.48583 | 32.8 | 1.624
328.15 K | 998.93 | 1.48149 | 31.6 | 1.383
338.15 K | 989.61 | 1.47688 | 30.6 | 1.191
348.15 K | 980.28 | 1.47224 | 29.4 | 1.037
358.15 K | 970.95 | 1.46747 | 28.6 | 0.908

COC(=O)c1ccccc1 [methyl benzoate]
Details | mass density, [1] [kg/m3] | refractive index, [2] | surface tension liquid-gas, [1] [mN/m] | viscosity, [1] [mPa·s]
288.15 K | 1093.23 | 1.51915 | 38.6 | 2.297
298.15 K | 1083.92 | 1.51467 | 37.2 | 1.851
308.15 K | 1074.34 | 1.50993 | 35.8 | 1.531
318.15 K | 1064.62 | 1.50514 | 34.8 | 1.297
328.15 K | 1054.82 | 1.50058 | 33.7 | 1.108
338.15 K | 1044.99 | 1.49584 | 32.5 | 0.97
348.15 K | 1035.23 | 1.49107 | 31.3 | 0.852
358.15 K | 1025.6 | 1.48624 | 30.4 | 0.75

— the NIST ThermoML archive (doi:10.1021/je050170x)
